The values below come from patent US20250296922A1, “POLYSUBSTITUTED PYRROLIDINE DERIVATIVE, PREPARATION METHOD THEREFOR AND USE THEREOF” (SHANGHAI WENNAI THERAPEUTICS CO LTD, priority 2023, published 2025).

The target in this test is Nav1.8 sodium channel (Homo sapiens (Human), UniProt Q9Y5Y9). Briefly: NaV1.8 blocking activity, manual patch clamp. It is filed as cell-based. As to conditions: CHO cell line stably expressing Nav1.8. Here is the method:
The NaV1.8 blocking activity was determined by using a manual patch clamp technique to detect the effect of the subject on the channel currents of stably overexpressed Nav1.8.
CHO cell line stably expressing the Nav1.8 sodium channel was used for the experiments, gene information: sodium channel, voltage-gated, type 8, alpha (SCN10A), cDNA strictly similar to GenBank accession number: NM 006514.
Cells were cultured in HAM'S/F-12 medium containing 10% foetal bovine serum and 10 μg/mL Blasticidin, 200 μg/mL Hygromycin B, and 100 μg/mL Zeocin at 37° C., 5% CO2. For expansion or maintenance cultures, cells were treated with 0.25%-Trypsin-EDTA, washed and centrifuged, and then inoculated in 6-cm cell culture dishes with 2.5×10^5lls per cell culture dish (final volume: 5 mL).
Prior to the patch clamp detection, cells were separated with 0.25%-Trypsin-EDTA and 6.5×10^3 cells were spread onto coverslips and incubated (final volume: 500 μL) in 24-well plates for 18 hours, then the test was performed.
50 mM CsCl, 10 mM NaCl, 10 mM HEPES, 60 mM CsF, 20 mM EGTA, and pH was adjusted to 7.2 with CsOH. • Instrument information is provided in Table 2 below:
Prior to Nav1.8 channel current testing, a blank control solution (DMSO) was diluted into 10 ml of extracellular fluid as the working solution. Positive controls and subjects were first diluted with different doses of DMSO depending on the final concentration before being diluted as working solution using extracellular fluid. 100 nM TTX was added to each working solution to block the TTX-S current. The working solution was sonicated for 20 min before performing the patch clamp test detection.
Patch clamp manipulation: firstly, the capillary glass tube was drawn into a recording electrode using a microelectrode puller, then the electrode filled with intracellular fluid was loaded into the microelectrode holder, and the microelectrode manipulator was manoeuvred under an inverted microscope to immerse the electrode into the extracellular fluid and record the electrode resistance (Rpip). The electrode was then slowly contacted to the cell surface and negative pressure suction was given to form a GQ2 seal. At this time, fast capacitance compensation was performed and negative pressure was continually applied to suction through the cell membrane to form a whole-cell recording pattern. Finally, slow capacitance compensation was performed and experimental parameters such as series resistance (Rs) were recorded. No leakage compensation was given.
Drug administration was initiated when the Nav1.8 current was stabilized for whole-cell recordings, and the next concentration was detected after each drug concentration had acted for approximately 5 min (or until the current was stable). Cell-lined coverslips were placed in the recording bath under an inverted microscope, and the blank control external solution as well as the working solution of the compound to be tested flowed sequentially from low to high concentrations through the recording bath by using gravitational perfusion and thus acted on the cells, and a peristaltic pump was used to exchange fluids during the recording. The current detected by each cell in the compound-free external fluid served as its own control. Each concentration was repeated independently 2-3 times. All electrophysiological experiments were performed at room temperature.
The voltage stimulation scheme for whole-cell patch-clamp recording of Nav1.8 currents was as follows: when a whole-cell seal was formed, the voltage was clamped at −120 mV. The resting state recording of sodium currents was performed by maintaining the voltage for 5s and then depolarizing it to 0 mV, and then administering a depolarizing pulse (TP1) to 0 m V for 50 ms for detecting the resting state sodium currents. For half-inactivated state recording, the voltage was first stepped at different voltages and maintained for 5s and then a depolarizing pulse was given to 0 mV to detect the Vhalf. […]
For orientation: Patch clamp records ionic current or voltage across a cell membrane.

Nav1.8 sodium channel, sequence (Q9Y5Y9 whole entry): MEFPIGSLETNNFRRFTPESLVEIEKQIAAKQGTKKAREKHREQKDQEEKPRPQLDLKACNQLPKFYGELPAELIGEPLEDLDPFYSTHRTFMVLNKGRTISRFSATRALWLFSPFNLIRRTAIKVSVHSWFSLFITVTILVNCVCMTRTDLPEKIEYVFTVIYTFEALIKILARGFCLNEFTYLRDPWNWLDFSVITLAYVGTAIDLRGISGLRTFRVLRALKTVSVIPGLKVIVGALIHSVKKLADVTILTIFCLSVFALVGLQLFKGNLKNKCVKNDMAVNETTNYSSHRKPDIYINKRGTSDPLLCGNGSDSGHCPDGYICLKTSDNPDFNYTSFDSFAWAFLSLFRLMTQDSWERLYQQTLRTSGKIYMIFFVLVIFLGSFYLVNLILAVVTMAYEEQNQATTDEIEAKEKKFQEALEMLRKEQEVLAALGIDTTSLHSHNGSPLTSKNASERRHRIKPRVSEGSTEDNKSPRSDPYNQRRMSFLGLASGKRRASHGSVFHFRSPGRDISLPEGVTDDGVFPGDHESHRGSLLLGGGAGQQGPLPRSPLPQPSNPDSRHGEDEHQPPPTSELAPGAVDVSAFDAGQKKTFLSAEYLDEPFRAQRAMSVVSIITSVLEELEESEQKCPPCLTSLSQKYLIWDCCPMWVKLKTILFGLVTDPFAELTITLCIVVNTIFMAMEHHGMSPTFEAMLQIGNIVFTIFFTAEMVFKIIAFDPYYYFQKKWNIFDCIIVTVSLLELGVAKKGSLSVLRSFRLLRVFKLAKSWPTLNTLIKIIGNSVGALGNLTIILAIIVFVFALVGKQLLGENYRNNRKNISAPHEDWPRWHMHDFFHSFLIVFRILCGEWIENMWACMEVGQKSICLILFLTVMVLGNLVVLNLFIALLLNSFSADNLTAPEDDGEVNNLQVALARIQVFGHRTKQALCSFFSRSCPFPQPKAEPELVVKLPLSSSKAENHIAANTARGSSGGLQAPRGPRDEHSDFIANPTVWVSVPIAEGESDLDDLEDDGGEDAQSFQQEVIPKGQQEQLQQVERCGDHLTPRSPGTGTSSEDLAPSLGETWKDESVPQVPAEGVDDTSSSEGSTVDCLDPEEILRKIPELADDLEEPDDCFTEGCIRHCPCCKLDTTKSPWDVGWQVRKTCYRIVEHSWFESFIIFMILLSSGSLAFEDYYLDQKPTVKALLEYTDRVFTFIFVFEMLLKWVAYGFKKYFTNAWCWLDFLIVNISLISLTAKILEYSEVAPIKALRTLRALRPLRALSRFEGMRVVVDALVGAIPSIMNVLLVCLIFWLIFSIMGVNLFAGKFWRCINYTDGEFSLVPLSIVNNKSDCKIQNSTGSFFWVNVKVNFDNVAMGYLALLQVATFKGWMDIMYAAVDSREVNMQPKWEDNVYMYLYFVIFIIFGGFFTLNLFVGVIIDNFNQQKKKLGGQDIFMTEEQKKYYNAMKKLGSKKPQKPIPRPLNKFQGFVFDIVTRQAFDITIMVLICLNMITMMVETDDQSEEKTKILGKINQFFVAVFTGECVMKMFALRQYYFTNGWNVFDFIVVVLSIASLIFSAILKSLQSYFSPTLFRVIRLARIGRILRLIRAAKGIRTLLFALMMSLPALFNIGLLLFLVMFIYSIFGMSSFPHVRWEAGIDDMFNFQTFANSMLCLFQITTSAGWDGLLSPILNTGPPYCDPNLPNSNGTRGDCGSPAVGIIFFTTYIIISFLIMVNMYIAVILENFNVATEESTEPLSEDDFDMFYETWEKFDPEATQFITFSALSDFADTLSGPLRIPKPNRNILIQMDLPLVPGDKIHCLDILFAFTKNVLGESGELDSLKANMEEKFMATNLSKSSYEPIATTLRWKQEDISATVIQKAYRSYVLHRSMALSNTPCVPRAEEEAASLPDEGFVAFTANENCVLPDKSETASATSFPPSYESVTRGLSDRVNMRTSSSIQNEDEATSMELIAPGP

In the case of `[2H]C([2H])([2H])Oc1c([C@H]2[C@H](C(=O)Nc3ccc(F)c(C(=N)NO)c3)N[C@@](C)(C(F)(F)F)[C@H]2C)ccc(F)c1F` [Compound 14, (2R,3S,4S,5R)-3-(3,4-difluoro-2-(methoxy-d3)phenyl)-N-(4-fluoro-3-(N-hydroxycarbamimidoyl)phenyl)-4,5-dimethyl-5-(trifluoromethyl) pyrrolidine-2-carboxamide], the “Blocking rate (%) @3 nM” value is listed as 91.40% and the “Blocking rate(%) @10 nM” value was 99.51%.

With `[2H]C([2H])([2H])Oc1c([C@H]2[C@H](C(=O)Nc3ccnc(C(=N)NOC)c3)N[C@@](C)(C(F)(F)F)[C@H]2C)ccc(F)c1F` [Compound 15, (2R,3S,4S,5R)-3-(3,4-difluoro-2-(methoxy-d3)phenyl)-N-(2-(N-methoxycarbamimidoyl)pyridin-4-yl)-4,5-dimethyl-5-(trifluoromethyl) pyrrolidine-2-carboxamide], the “Blocking rate (%) @3 nM” value is on record as 35.55% and the “Blocking rate(%) @10 nM” value stood at 79.44%.

In the case of `[2H]C([2H])([2H])Oc1c([C@H]2[C@H](C(=O)Nc3ccnc(C(=N)NO)c3)N[C@@](C)(C(F)(F)F)[C@H]2C)ccc(F)c1F` [Compound 16, (2R,3S,4S,5R)-3-(3,4-difluoro-2-(methoxy-d3)phenyl)-N-(2-(N-hydroxycarbamimidoyl)pyridin-4-yl)-4,5-dimethyl-5-(trifluoromethyl) pyrrolidine-2-carboxamide], the “Blocking rate (%) @3 nM” value amounted to 6.68% and the “Blocking rate(%) @10 nM” value is 25.19%.

Turning to `[2H]C([2H])([2H])Oc1c([C@H]2[C@H](C(=O)Nc3cc[n+]([O-])c(C(N)=O)c3)N[C@@](C)(C(F)(F)F)[C@H]2C)ccc(F)c1F` [Compound 18, 2-carbamoyl-4-((2R,3S,4S,5R)-3-(3,4-difluoro-2-(methoxy-d3)phenyl)-4,5-dimethyl-5-(trifluoromethyl)pyrrolidine-2-carboxamido)pyridine 1-oxide], the “Blocking rate (%) @3 nM” value was 40.29% and the “Blocking rate(%) @10 nM” value is given as 63.01%.

For `C[C@H]1[C@@H](c2ccc(F)c(F)c2OC(F)F)[C@H](C(=O)Nc2ccnc(C(N)=O)c2)N[C@@]1(C)C(F)(F)F` [Compound 19, 4-((2R,3S,4S,5R)-3-(2-(difluoromethoxy)-3,4-difluorophenyl)-4,5-dimethyl-5-(trifluoromethyl)pyrrolidine-2-carboxamido)pyridinamide], the “Blocking rate (%) @3 nM” value is recorded as 26.22% and the “Blocking rate(%) @10 nM” value turned out to be 55.68%.
